“And” between values parts separate entries of the source, which are not always exact repeats. Identical values can stand only once.
Test system: 855422-203-R-J1-PDC complex spheroid viability
Experiment: Anticancer human tumor 855422-203-R-J1-PDC patient-derived bladder carcinoma cell line growth inhibition
Details: for viability, T/C: stronger effect = lower value
Method in brief: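 Complex spheroids of tumor cells with HUVEC and human MSCs, exposed to iadademstat combined with other agents. Each agent tested in half-log steps from near clinical Cmax (else 10 microM top), DMSO ≤0.25%.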

[1] = curve of first compound, second compound 0.1 µM
[2] = curve of first compound, second compound 0.316 µM
[3] = curve of first compound, second compound 1 µM
[4] = curve of first compound, second compound 3.16 µM
[5] = curve of first compound, second compound 10 µM
[6] = second compound 0.1 µM, first compound 0.00949 µM
[7] = second compound 0.1 µM, first compound 0.03 µM
[8] = second compound 0.1 µM, first compound 0.0949 µM
[9] = second compound 0.1 µM, first compound 0.3 µM
[10] = second compound 0.316 µM, first compound 0.00949 µM
[11] = second compound 0.316 µM, first compound 0.03 µM
[12] = second compound 0.316 µM, first compound 0.0949 µM
[13] = second compound 0.316 µM, first compound 0.3 µM
[14] = second compound 1 µM, first compound 0.00949 µM
[15] = second compound 1 µM, first compound 0.03 µM
[16] = second compound 1 µM, first compound 0.0949 µM
[17] = second compound 1 µM, first compound 0.3 µM
[18] = second compound 3.16 µM, first compound 0.00949 µM
[19] = second compound 3.16 µM, first compound 0.03 µM
[20] = second compound 3.16 µM, first compound 0.0949 µM
[21] = second compound 3.16 µM, first compound 0.3 µM
[22] = second compound 10 µM, first compound 0.00949 µM
[23] = second compound 10 µM, first compound 0.03 µM
[24] = second compound 10 µM, first compound 0.0949 µM
[25] = second compound 10 µM, first compound 0.3 µM
[26] = second compound 0.1 µM, first compound 0.949 µM
[27] = second compound 0.1 µM, first compound 3 µM
[28] = second compound 0.316 µM, first compound 0.949 µM
[29] = second compound 0.316 µM, first compound 3 µM
[30] = second compound 1 µM, first compound 0.949 µM
[31] = second compound 1 µM, first compound 3 µM
[32] = second compound 3.16 µM, first compound 0.949 µM
[33] = second compound 3.16 µM, first compound 3 µM
[34] = second compound 10 µM, first compound 0.949 µM
[35] = second compound 10 µM, first compound 3 µM
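Note: drug exposure lasted 7 days starting on day 3 after seeding.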
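Throughout, for viability, T/C: luminescence viability as percent of DMSO vehicle wells = 100%.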

## O=C(C=Cc1cccc(S(=O)(=O)Nc2ccccc2)c1)NO
Compound 0.00949 µM
  viability, T/C: 90.4% and 96.6%
Compound 0.03 µM
  viability, T/C: 104% and 108%
Compound 0.0949 µM
  viability, T/C: 82% and 112%
Compound 0.3 µM
  viability, T/C: 64.3% and 65.9%
Compound 0.949 µM
  viability, T/C: 12.3% and 17.6%
Compound 3 µM
  viability, T/C: 0.4% and 0.43%
Curve of compound
  IC50: 399 nM and 444 nM

## COc1ccc([C@@H](O)c2cc(-c3ncnc4cc(N5CCOCC5)ccc34)c(F)cc2Cl)nn1 + NC1CC1c1ccc(-c2cccc(O)c2)cc1
[1]
  IC50: 5200 nM
[2]
  IC50: 4860 nM
[3]
  IC50: 4320 nM
[4]
  IC50: 3560 nM
[5]
  IC50: 2740 nM
Second compound 0.1 µM, first compound 0.0316 µM
  viability, T/C: 86.7%
Second compound 0.1 µM, first compound 0.1 µM
  viability, T/C: 90.9%
Second compound 0.1 µM, first compound 0.316 µM
  viability, T/C: 84.9%
Second compound 0.1 µM, first compound 1 µM
  viability, T/C: 77.7%
Second compound 0.1 µM, first compound 3.16 µM
  viability, T/C: 62.1%
Second compound 0.1 µM, first compound 10 µM
  viability, T/C: 34.4%
Second compound 0.316 µM, first compound 0.0316 µM
  viability, T/C: 94.5%
Second compound 0.316 µM, first compound 0.1 µM
  viability, T/C: 88.2%
Second compound 0.316 µM, first compound 0.316 µM
  viability, T/C: 90.4%
Second compound 0.316 µM, first compound 1 µM
  viability, T/C: 80.2%
Second compound 0.316 µM, first compound 3.16 µM
  viability, T/C: 57.9%
Second compound 0.316 µM, first compound 10 µM
  viability, T/C: 36.7%
Second compound 1 µM, first compound 0.0316 µM
  viability, T/C: 84.4%
Second compound 1 µM, first compound 0.1 µM
  viability, T/C: 88.8%
Second compound 1 µM, first compound 0.316 µM
  viability, T/C: 79.8%
Second compound 1 µM, first compound 1 µM
  viability, T/C: 75.2%
Second compound 1 µM, first compound 3.16 µM
  viability, T/C: 54%
Second compound 1 µM, first compound 10 µM
  viability, T/C: 38.2%
Second compound 3.16 µM, first compound 0.0316 µM
  viability, T/C: 88.6%
Second compound 3.16 µM, first compound 0.1 µM
  viability, T/C: 93.9%
Second compound 3.16 µM, first compound 0.316 µM
  viability, T/C: 77.3%
Second compound 3.16 µM, first compound 1 µM
  viability, T/C: 69.8%
Second compound 3.16 µM, first compound 3.16 µM
  viability, T/C: 51.8%
Second compound 3.16 µM, first compound 10 µM
  viability, T/C: 35.1%
Second compound 10 µM, first compound 0.0316 µM
  viability, T/C: 83.3%
Second compound 10 µM, first compound 0.1 µM
  viability, T/C: 77.6%
Second compound 10 µM, first compound 0.316 µM
  viability, T/C: 75.2%
Second compound 10 µM, first compound 1 µM
  viability, T/C: 71.3%
Second compound 10 µM, first compound 3.16 µM
  viability, T/C: 46.6%
Second compound 10 µM, first compound 10 µM
  viability, T/C: 29.9%

## O=C(c1cc(Cc2n[nH]c(=O)c3ccccc23)ccc1F)N1CCN(C(=O)C2CC2)CC1
Compound 0.0316 µM
  viability, T/C: 88.5% and 98.6%
Compound 0.1 µM
  viability, T/C: 94.1% and 111%
Compound 0.316 µM
  viability, T/C: 96% and 110%
Compound 1 µM
  viability, T/C: 88.8% and 98.8%
Compound 3.16 µM
  viability, T/C: 86.5% and 91.7%
Compound 10 µM
  viability, T/C: 63.3% and 76.1%
Curve of compound
  IC50: > 10000 nM

## Nc1ncn(C2CC(O)C(CO)S2)c(=O)n1 (centres undefined) + NC1CC1c1ccc(-c2cccc(O)c2)cc1
[1]
  IC50: > 300 nM
[2]
  IC50: > 300 nM
[3]
  IC50: > 300 nM
[4]
  IC50: > 300 nM
[5]
  IC50: > 300 nM
Second compound 0.1 µM, first compound 0.000949 µM
  viability, T/C: 94.4%
Second compound 0.1 µM, first compound 0.003 µM
  viability, T/C: 95.2%
[6]
  viability, T/C: 92.8%
[7]
  viability, T/C: 105%
[8]
  viability, T/C: 93.2%
[9]
  viability, T/C: 83.5%
Second compound 0.316 µM, first compound 0.000949 µM
  viability, T/C: 87.7%
Second compound 0.316 µM, first compound 0.003 µM
  viability, T/C: 91.2%
[10]
  viability, T/C: 92.3%
[11]
  viability, T/C: 103%
[12]
  viability, T/C: 97.5%
[13]
  viability, T/C: 77.9%
Second compound 1 µM, first compound 0.000949 µM
  viability, T/C: 87.3%
Second compound 1 µM, first compound 0.003 µM
  viability, T/C: 88.6%
[14]
  viability, T/C: 93.5%
[15]
  viability, T/C: 99.2%
[16]
  viability, T/C: 95.4%
[17]
  viability, T/C: 73.1%
Second compound 3.16 µM, first compound 0.000949 µM
  viability, T/C: 81.9%
Second compound 3.16 µM, first compound 0.003 µM
  viability, T/C: 84.9%
[18]
  viability, T/C: 91.3%
[19]
  viability, T/C: 93.4%
[20]
  viability, T/C: 93.7%
[21]
  viability, T/C: 73.4%
Second compound 10 µM, first compound 0.000949 µM
  viability, T/C: 85.9%
Second compound 10 µM, first compound 0.003 µM
  viability, T/C: 83.3%
[22]
  viability, T/C: 85.6%
[23]
  viability, T/C: 94.3%
[24]
  viability, T/C: 84.4%
[25]
  viability, T/C: 68.8%

## O=C(C=Cc1cccc(S(=O)(=O)Nc2ccccc2)c1)NO + NC1CC1c1ccc(-c2cccc(O)c2)cc1
[1]
  IC50: 446 nM
[2]
  IC50: 448 nM
[3]
  IC50: 404 nM
[4]
  IC50: 466 nM
[5]
  IC50: 336 nM
[6]
  viability, T/C: 102%
[7]
  viability, T/C: 109%
[8]
  viability, T/C: 106%
[9]
  viability, T/C: 66.2%
[26]
  viability, T/C: 17.4%
[27]
  viability, T/C: 0.43%
[10]
  viability, T/C: 103%
[11]
  viability, T/C: 112%
[12]
  viability, T/C: 122%
[13]
  viability, T/C: 66.4%
[28]
  viability, T/C: 19.4%
[29]
  viability, T/C: 0.31%
[14]
  viability, T/C: 100%
[15]
  viability, T/C: 116%
[16]
  viability, T/C: 114%
[17]
  viability, T/C: 60.4%
[30]
  viability, T/C: 18.3%
[31]
  viability, T/C: 0.29%
[18]
  viability, T/C: 94.5%
[19]
  viability, T/C: 105%
[20]
  viability, T/C: 118%
[21]
  viability, T/C: 69.8%
[32]
  viability, T/C: 17.1%
[33]
  viability, T/C: 0.24%
[22]
  viability, T/C: 97.6%
[23]
  viability, T/C: 108%
[24]
  viability, T/C: 106%
[25]
  viability, T/C: 54%
[34]
  viability, T/C: 10.9%
[35]
  viability, T/C: 0.27%

## CCN(c1cc(-c2ccc(CN3CCOCC3)cc2)cc(C(=O)NCc2c(C)cc(C)[nH]c2=O)c1C)C1CCOCC1 + NC1CC1c1ccc(-c2cccc(O)c2)cc1
[1]
  IC50: > 3000 nM
[2]
  IC50: > 3000 nM
[3]
  IC50: > 3000 nM
[4]
  IC50: > 3000 nM
[5]
  IC50: > 3000 nM
[6]
  viability, T/C: 90.2%
[7]
  viability, T/C: 96.8%
[8]
  viability, T/C: 99%
[9]
  viability, T/C: 98%
[26]
  viability, T/C: 89%
[27]
  viability, T/C: 84.9%
[10]
  viability, T/C: 89%
[11]
  viability, T/C: 96.8%
[12]
  viability, T/C: 96.5%
[13]
  viability, T/C: 105%
[28]
  viability, T/C: 93%
[29]
  viability, T/C: 99.2%
[14]
  viability, T/C: 91.4%
[15]
  viability, T/C: 89.3%
[16]
  viability, T/C: 97.7%
[17]
  viability, T/C: 88.7%
[30]
  viability, T/C: 87.7%
[31]
  viability, T/C: 86.4%
[18]
  viability, T/C: 102%
[19]
  viability, T/C: 94%
[20]
  viability, T/C: 91.6%
[21]
  viability, T/C: 103%
[32]
  viability, T/C: 95.1%
[33]
  viability, T/C: 97.7%
[22]
  viability, T/C: 99.9%
[23]
  viability, T/C: 101%
[24]
  viability, T/C: 91.4%
[25]
  viability, T/C: 94.7%
[34]
  viability, T/C: 97.8%
[35]
  viability, T/C: 92.6%

Source: PubChem BioAssay AID1918943 (Molecular Pharmacology Branch, DTP, NCI, 2023)
